From US20230000888A1, “NAD-PRECURSORS AND DIETARY RESTRICTION FOR TREATING AGE RELATED MEDICAL CONDITIONS” (Leibniz-Institut für Alternsforschung - …, priority 2019, published 2023) come the findings set out here.

Experiment [1] relates to HSCs (CD150+CD34−Flt3−LSK). The experiment in a line: Culture of HSCs from FCCP- or vehicle-treated mice with 3I-treatment, total cell numbers. The class given is cell-based. The settings on record: HSCs from high-dose FCCP-treated young mice; FIG. 6G.
Description: (F,G) Young, 3-4 month old mice were treated within one week with two intraperitoneal injections of FCCP on day-1 and day-4 (high-dose: 4.8 mg/Kg or low-dose: 1.2 mg/Kg) or with vehicle control (10% DMSO) (n=4 mice per group). One week after the start of the treatment (day-7), total bone marrow cells were analyzed and used for culture experiments. […] (G) 2,500 freshly isolated HSCs from vehicle-treated of high-dose FCCP-treated animals were cultured and exposed to 3I-treatment (same concentration as in FIG. 6E) or to vehicle-treatment (Con). The histogram depicts the total cell numbers at 4 days after culture initiation. (F,G) Data are normally distributed (Shapiro-Wilk test) and p-values were calculated using one-way ANOVA (F) and two-way ANOVA (G) with Tukey's multiple comparisons test. Error bars depict SD.
(§2) To experimentally test whether mitochondrial dysfunction would cause an abrogation of adaptive responses of HSCs to reduction in nutrient availability, young mice were exposed the mitochondrial uncoupler FCCP or vehicle (two injections: day-1 and day-4). One week after the first injection, the mice were analyzed and freshly isolated HSCs of FCCP-treated vs. DMSO-treated mice were exposed in culture to the 3 above described inhibitors of mitochondrial nutrient uptake—a combination of BPTES, Etomoxir, and UK5099, referred to from here on as “3I”.
Experiment [2] has as its system HSCs (CD150+CD34−Flt3−LSK). As to conditions: young mice, two i.p. injections (day-1, day-4), 1.2 or 4.8 mg/Kg, 1 week; FIG. 6F.
Description: (F,G) Young, 3-4 month old mice were treated within one week with two intraperitoneal injections of FCCP on day-1 and day-4 (high-dose: 4.8 mg/Kg or low-dose: 1.2 mg/Kg) or with vehicle control (10% DMSO) (n=4 mice per group). One week after the start of the treatment (day-7), total bone marrow cells were analyzed and used for culture experiments. […] (F,G) Data are normally distributed (Shapiro-Wilk test) and p-values were calculated using one-way ANOVA (F) and two-way ANOVA (G) with Tukey's multiple comparisons test. Error bars depict SD.
as §2
Young C57BL/6 wild type mice (3 months) male mice were weighed before the injection. […]
The next experiment has as its system CMPs. As to conditions: FIG. 8H.
Experiment [3] relates to HSCs (CD150+CD34−Flt3−LSK). Put plainly: Culture of freshly isolated HSCs with metabolic inhibitors, total cell numbers by FACS after 5 days. The settings on record: for cell numbers 5 days after induction of the inhibitor treatment, HSCs from young mice / sensitivity to respond with a reduction in cell growth, HSCs from old mice: inhibitor of mitochondrial nutrient uptake 9 μM, FIG. 6D; for sensitivity to respond with a reduction in cell growth, HSCs from old mice: compared to young; for cell numbers 5 days after initiation of the treatment, HSCs from old mice compared to HSCs from young mice: 2-DG 3 mM, Oligomycin 1.8 nM, 1,500 HSCs per well, FIG. 6C. The class given is cell-based, mice. On the procedure:
(C-E) One-thousand-five-hundred, freshly isolated HSCs (CD150^+CD34^−Flt3^−LSK) from young or old mice were cultured per well (96-well plate). (C) HSCs were exposed to 2-DG (3 mM), Oligomycin (=Oligo, 1.8 nM), or DMSO as control (=Con). Total cell numbers per well were determined by FACS after 5 days. Young mice (4 months, n=4) and old mice (24 months, n=6). Data are normally distributed (Shapiro-Wilk test). P-values were calculated by t-test with Welch's correction. Error bars depict SD. (D) HSCs were cultured with inhibitors that block the mitochondrial uptake of […] (BPTES, 9 μM), fatty acids (Etomoxir, 9 μM), or pyruvate (UK5099, 9 μM). Total cell numbers were counted by FACS after 5 days. Young mice (3-4 months, n=5) and old mice (26 months, n=4). Data are normally distributed (Shapiro-Wilk test). P-values were calculated by unpaired t-test with Welch's correction. (E) HSCs were exposed to a combination of 3 inhibitors (3 inhibitors=3I, same as in D) at a concentration of 6 μM (each) or to DMSO (Con). Young mice (2-3 months, n=5) and old mice (30-31 months, n=5). Data are normally distributed (Shapiro-Wilk test). P-values were calculated using 2-way ANOVA with Tukey's multiple comparisons test. Error bars depict SD.
To test the functional relevance of these aging-associated changes in the proteome of HSCs, freshly isolated HSCs were exposed to treatment with oligomycin (an inhibitor of mitochondrial oxidative phosphorylation) or to treatment with 2-Deoxy-D-glucose (2-DG) in culture. […] Similar results were obtained after inhibition of nutrient influx into mitochondria. In this experiment, freshly isolated HSCs were incubated with compounds that inhibit the influx of nutrients into mitochondria (BPTES for glutamine, Etomoxir for fatty acids, or UK5099 for pyruvate).
For testing the response of HSPCs to the blocking of glycolysis or mitochondrial ATP synthesis, 2-DG (Sigma, D8375) or oligomycin A (Sigma, 75351) were used. For the inhibition of nutrient uptake into mitochondria, three inhibitors (3I) were used. BPTES (Sigma, SML0601) blocks […] uptake, Etomoxir (Sigma E1905) blocks Fatty acids uptake, and UK5099 (Sigma PZ0160) blocks pyruvate uptake. The final concentration of each inhibitor in the culture medium is 6 μM. Same amount of DMSO was used in the medium as control. For determination of cell number after NR treatment 500 HSCs from young (2-3 months) and old (22-24 months) were pre-incubated either with 1 mM NR (provided by Prof. Johan Auwerx Lab) or DMSO as control for 2 days followed by 2 days treatment with the inhibitors (BPTES, Etomoxir and UK5099, 6 μM each) or same amount of DMSO as control. The cells were then analyzed by BD LSR fortessa.

The subject of experiment [4] is Ldha, Pdha, Nrf1 and Hif1a mRNA in HSCs. The experiment in a line: qPCR of Ldha, Pdha, Nrf1, Hif1a in HSCs after oligomycin-treatment. As to conditions: oligomycin 0.6 μM, 3 hours. In kind it is cell-based, mice. How it is done:
FIG. 8. (A,B) Freshly isolated HSCs (CD150^+CD34^−Flt3^−LSK) from young mice (2-3 months, n=4) and old mice (27-30 months, n=6) were exposed to oligomycin-treatment (0.6 μM) or vehicle control (0.1% DMSO) for 3 hours in culture (7000 HSCs per well of a 96-well plate). Gene expressions (relative to β-actin) of (A) Ldha, (B) Pdha were analyzed by qPCR. […] P-values were calculated on transformed data by unpaired t-test with Welch's correction. Error bars depict SD.
(E,F) The same HSC cultures that were described in FIG. 8A were used to determine the mRNA expression levels of (E) Nrf1 and (F) Hif1a relative to β-actin by qPCR. N=4 for young groups, n=6 for old groups. One outlier (Grubbs test) was removed for the control groups). […] Error bars depict SD.
(§1) To further test this hypothesis, we analyzed the adaptability of mitochondrial metabolic pathways in freshly isolated HSPCs from young and old mice. First, we exposed freshly isolated HSCs to Oligomycin or to control treatment and we analyzed the RNA expression of Lactate dehydrogenase A (Ldha) and Pyruvate dehydrogenase A (Pdha) 3 hours after isolation and drug treatment. […] Second, we measured the activity of LDH and PDH in freshly isolated HSCs that were exposed for 20 hours to Oligomycin. […] Again HSCs from old mice were irresponsive (FIG. 8C,D). […] Third, we analyzed OCR in freshly isolated CMPs that were treated for 12 hours with inhibitors of mitochondrial nutrient flow (3I) compared to control treatment. As outlined above, CMPs were used for these respirometry experiments, which need higher cell numbers and thus cannot be conducted on HSCs. […] This increase in OCR in young compared to old CMPs was different from freshly isolated MPs (FIG. 3D) likely due to culture induced activation of OCR in young CMPs, which was impaired in old CMPs by pre-existing, chronic mitochondrial dysfunction.

Experiment [5] has as its system LDH and PDH activity in HSCs. Put plainly: Activity of LDH and PDH in cultured HSCs after oligomycin-treatment. The class given is cell-based, mice. As to conditions: oligomycin 2.4 nM, 20 hours. On the procedure: (C,D) Freshly isolated HSCs (CD150^+CD34^−Flt3^−LSK) from young mice (3-4 months, n=7) and old mice (24-25 months, n=7) were cultured overnight (7,000 HSCs per well of a 96-well plate). Eighteen hours later, HSCs were exposed to oligomycin-treatment (2.4 nM) or vehicle control (0.04% DMSO). After 20h treatment, 1,000 cells from the cultures were isolated by FACS to analyze the activity of (C) LDH and (D) PDH. The histograms depict the data scaled to the average of young, control-treated HSCs set to 1. Data are normally distributed (Shapiro-Wilk test). P-values were calculated by two-way ANOVA with Tukey's multiple comparison tests. Error bars depict SD.
as §1

Description for CMPs: (H) Young, 3-4-month old mice were treated one week with two intraperitoneal injections of FCCP/week (high-dose: 4.8 mg/Kg or low-dose: 1.2 mg/Kg) or with vehicle control (10% DMSO) (n=4 mice per group). One week after the start of the treatment, CMPs were freshly isolated and exposed for 12h in culture to a combination of 3 inhibitors of mitochondrial nutrient uptake (31: 6 μM of each BPTES, Etomoxir, and UK5099) or DMSO control (Con). Statistical analysis: The data were normally distributed (Shapiro-Wilk) and p-values were calculated by 2-way ANOVA with Tukey's multiple comparisons test. Error bars depict SD.
To experimentally test this conclusion, CMPs from FCCP-treated vs. control treated young mice (see above) were exposed for 12 hours to 3I-treatment in culture and adaptive response in OCR were measured by Seahorse.
Young C57BL/6 wild type mice (3 months) male mice were weighed before the injection. The mice were then injected intraperitoneally with low dose (1.2 mg/Kg), high dose (4.82 mg/Kg) of FCCP, or 10% DMSO as control (all drugs were dissolved in 10% DMSO. The drug concentration was adjusted so that the final volume of injection of each injection is 150 pL/mouse. The mice were injected at day 1 and day 4 after weighing. Then they were analyzed at day 6. […]

On to `N#CC(C#N)=NNc1ccc(OC(F)(F)F)cc1` [FCCP], for which the “response of HSCs to 3I-treatment by reduction in cell expansion” value in experiment [1] was “complete abrogation in responding to 3I-treatment”. For the same compound, in experiment [2], the “number of phenotypic HSCs in bone marrow” value is on record as “dose dependent increase in the number of phenotypic HSCs in bone marrow”. In addition, the “responsiveness of CMPs to reduce OCRs in response to 3I-treatment in culture” value in the experiment on CMPs (CMPs from FCCP-treated young mice, 3I 6 μM each, 12 h) is “dose dependent loss in the responsiveness”. In addition, in the experiment with CMPs (in vivo pre-treatment of young mice with FCCP 1.2 or 4.8 mg/Kg), the “OCR of freshly isolated CMPs” value is on record as “dose dependent reduction in the OCR”.

For the compound `N#C/C(=C\c1cn(-c2ccccc2)c2ccccc12)C(=O)O` [UK5099], in experiment [3], the “cell numbers 5 days after induction of the inhibitor treatment, HSCs from young mice” value is given as “strong reduction in cell numbers” and the “sensitivity to respond with a reduction in cell growth, HSCs from old mice” value (“sensitivity to respond with a reduction” for short) is recorded as “significantly reduced”.

As to `O=C(Cc1ccccc1)Nc1nnc(CCSCCc2nnc(NC(=O)Cc3ccccc3)s2)s1` [BPTES], in experiment [3], the “cell numbers 5 days after induction of the inhibitor treatment, HSCs from young mice” value is “strong reduction in cell numbers” and the “sensitivity to respond with a reduction” value was “significantly reduced”.

Take `CC[C@H]1/C=C/C=C/C[C@@H](C)[C@H](O)[C@@](C)(O)C(=O)[C@@H](C)[C@H](O)[C@@H](C)C(=O)[C@@H](C)[C@H](O)[C@@H](C)/C=C/C(=O)O[C@@H]2[C@H](C)[C@H](CC1)O[C@]1(CC[C@H](C)[C@H](C[C@@H](C)O)O1)[C@H]2C` [oligomycin, oligomycin A]: in experiment [3], the “cell numbers 5 days after initiation of the treatment, HSCs from old mice compared to HSCs from young mice” value was “less responsive to reduce cell growth”. Also, in experiment [4] (HSCs from old mice, FIG. 8A,B), the “Ldha and Pdha RNA expression” value is recorded as “irresponsive”. In addition, the “Ldha RNA expression” value in experiment [4] (HSCs from young mice, FIG. 8A) is “significant suppression of Ldha expression”. The “Pdha RNA expression” value in experiment [4] (HSCs from young mice, FIG. 8B) is “concomitant increase in Pdha expression”. Besides, in experiment [5] (HSCs from old mice, FIG. 8C,D), the “LDH and PDH activity” value was “irresponsive”. The LDH activity result in experiment [5] (HSCs from young mice, FIG. 8C) was “reduction in LDH activity”. Besides, the PDH activity result in experiment [5] (HSCs from young mice, FIG. 8D) is given as “PDH activity was maintained”.

As to `CCOC(=O)[C@@]1(CCCCCCOc2ccc(Cl)cc2)CO1` [Etomoxir], in experiment [3], the “cell numbers 5 days after induction of the inhibitor treatment, HSCs from young mice” value was “strong reduction in cell numbers” and the “sensitivity to respond with a reduction” value is “significantly reduced”.

As to `O=CC[C@@H](O)[C@H](O)[C@H](O)CO` [2-DG, 2-Deoxy-D-glucose], in experiment [3], the “cell numbers 5 days after initiation of the treatment, HSCs from old mice compared to HSCs from young mice” value is listed as “stronger reduction in cell numbers”.
